Numbered stars: 1 amine (or outer) side, 2 acyl side, 3 side chain; on linkers, the order of the positions; unused ones are H or OH. Bridge positions count the residues as written; N and C are the ends. Square brackets hold non-standard residues; d marks the D form. Peptide text beside a SMILES is read from it. * marks the point of attachment. X4 = CN(C)C(=N[C@@H](CCCNC(=N)N)C(=O)*)N(C)C; 2Nal = N[C@@H](Cc1ccc2ccccc2c1)C(=O)O; Cit = NC(=O)NCCC[C@H](N)C(=O)O; Suc = O=C(CCC(=O)[*:2])[*:1]

One test has as its target T1, CXCR4 receptor (Homo sapiens, UniProt P61073).
T1 construct: 50 μL of Jurkat human T-cell leukemia cells (6×10^6 cells/mL) suspended in buffer; endogenous in cells; host or cells: Jurkat human T-cell leukemia cells
Briefly: Inhibition of 125I-CXCL12 binding to CXCR4 receptor on Jurkat cells. The note with it: Table 1, 125I-CXCL12, 1 hour at room temperature, compounds as acetate salt, read-out: IC50 (nM), inhibitory activity against CXCL12 binding to CXCR4 receptor.

The test system of test [1] is human breast cancer MDA-MB-231 cells. Briefly: Inhibition of CXCL12-induced breast cancer cell migration (Transwell). In kind it is cell-based. The note with it: 10 nM of the antagonist; 100 nM CXCL12; 15 hours. The procedure:
Transwell filter (polycarbonate filter, 8 μm diameter, Costar Company) was treated at 37° C. for 6 hours in 10 μg/mL fibronectin solution and air-dried. 100 nM of CXCL12 (R&D System Company) and 600 μL/well of buffer-A (0.1% bovine serum albumin, DMEM (GibcoBRL) containing 12 mM HEPES) containing the test compound were added to the lower chamber of the Transwell. The test compound and human breast cancer MDA-MB-231 cells (purchased from American Tissue Culture Collection), and 100 μL/well of buffer A containing 2×10^6 cells/mL were added to the upper chamber. […] Cutting off the filter part, adding 0.1 M sodium citrate/50% ethanol solution, and eluting crystal violet absorption at 550 nm was measured. […]
After 15 hours' incubation at 37° C. in 5% CO2 incubator, the upper surface of the filter was wiped and the cell was removed, and then the cell on the lower surface of the filter was fixed and stained with 25% methanol solution containing 0.5% crystal violet (Wako Pure Chemical Ind.), washed by distilled water and air-dried. Cutting off the filter part, adding 0.1 M sodium citrate/50% ethanol solution, and eluting crystal violet absorption at 550 nm was measured. […]

The subject of test [2] is mouse collagen-induced arthritis. In words: Mouse collagen-induced arthritis. It is filed as in vivo, DBA/1JN mouse. The following applies: known drugs p.o. daily for 2 weeks: Indomethacin 1 mg/kg, methotrexate 3 mg/kg, FK-506 10 mg/kg. As for the experimental part:
FK-506 was purified by a known method (Kino T. et al., J. Antibiot., 1987 40(9): 1249-55). […] For 2 weeks after the additional immunization, body weights and hindlimb thickness were measured and arthritis scoring was made. Arthritis scores were scored at 0-3 points of each limb, and evaluated by the total of the same (12 points being the full points; 0, normal; 1, mild swelling or swelling of a single digit; 2, moderate swelling or swelling of plural digits; 3, severe swelling). Two weeks after the immunization, four limbs and sera were picked. After coat blocking bovine type II collagen (10 μg/mL PBS solution) on the immunoplate, 100 μL of 1000 times diluted mouse serum was added, and kept at room temperature for 2 hours. After cleansing, anti-mouse IgG2a antibody (1000 times dilution) was added. After cleansing, TMB was added, kept at room temperature for 30 minutes, H2SO4 of equal amount was added, and A450 nm was measured. Indomethacin (1 mg/kg), methotrexate (3 mg/kg) and FK-506 (10 mg/kg) were suspended to 0.5% methyl cellulose, and orally administered every day for 2 weeks from the day of the additional immunization at the dose of 0.1 mL/10 g body weight. 0.5% methyl cellulose solution of the equal dose was orally administered to the control group. 4Fbenzoyl-TN14003 was dissolved to PBS, and continuously administered using Alzet osmotic pumps (Alza, 0.5 μL/hr 2 weeks). The osmotic pumps were implanted intradermally to the backs of the mice under ether anesthesia on the day before the additional immunization. As the control, pumps injected with PBS were similarly implanted. Evaluation of each drug was made for the value obtained 2 weeks after the additional immunization. Data were expressed as mean value±standard margin of error (n=8-12). Comparison between 2 groups was made by Student's t-test, p≦0.05 was valued as significant. Multiple comparison was made by Dunnett test, p≦0.05 was valued as significant.

T1 sequence (P61073 whole entry): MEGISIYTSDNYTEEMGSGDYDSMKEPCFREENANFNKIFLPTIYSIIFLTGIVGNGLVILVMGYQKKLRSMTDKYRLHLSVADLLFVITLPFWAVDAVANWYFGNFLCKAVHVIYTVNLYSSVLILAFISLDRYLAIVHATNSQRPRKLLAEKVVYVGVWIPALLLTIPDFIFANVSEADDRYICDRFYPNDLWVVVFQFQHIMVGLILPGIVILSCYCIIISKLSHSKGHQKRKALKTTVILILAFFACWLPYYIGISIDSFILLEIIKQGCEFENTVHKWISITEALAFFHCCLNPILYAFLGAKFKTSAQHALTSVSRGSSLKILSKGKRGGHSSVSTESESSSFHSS
Protocol for CXCR4 receptor: After reaction, suction was made toward the reaction solution by 96 well GF/C filter plate, and each well's radioactivity was measured by top count. As the radioactivity index of 100% when the test compound was not added, and 0% when 100 nM of non-radioisotope-labeled CXCL12 was added, the inhibitory activity of each test compound was measured.

`N=C(N)NCCC[C@H](NC(=O)[C@@H]1CSSC[C@H](NC(=O)[C@H](Cc2ccc3ccccc3c2)NC(=O)[C@H](CCCNC(=N)N)NC(=O)[C@@H](N)CCCNC(=N)N)C(=O)N[C@@H](Cc2ccc(O)cc2)C(=O)N[C@@H](CCCNC(=N)N)C(=O)N[C@@H](CCCCN)C(=O)N[C@H](CCC(=O)O)C(=O)N2CCC[C@H]2C(=O)N[C@@H](Cc2ccc(O)cc2)C(=O)N[C@@H](CCCNC(=N)N)C(=O)N[C@@H](CCCNC(N)=O)C(=O)N1)C(=O)O` [TE14005, H-Arg-Arg-Nal-Cys-Tyr-Arg-Lys-DGlu-Pro-Tyr-Arg-Cit-Cys-Arg-OH] (H-RR[2Nal]CYRK[dE]PYR[Cit]CR-OH; disulfide 4-13): at CXCR4 receptor, the IC50 is 2.2 nM. In addition, the “CXCL12-induced migration of MDA-MB-231 cells” value in test [1] is listed as “inhibited”. Consider `CN(Cc1cnc2nc(N)nc(N)c2n1)c1ccc(C(=O)N[C@@H](CCC(=O)O)C(=O)O)cc1` [methotrexate, reference compound], for which, in test [2], the arthritis score result is on record as “significant or evident inhibitory activity” and the hindlimb swelling entry is listed as “significantly inhibited”.

As to `N=C(N)NCCC[C@H](NC(=O)[C@@H]1CSSC[C@H](NC(=O)[C@H](Cc2ccc3ccccc3c2)NC(=O)[C@H](CCCNC(=N)N)NC(=O)CCC(=O)O)C(=O)N[C@@H](Cc2ccc(O)cc2)C(=O)N[C@@H](CCCNC(N)=O)C(=O)N[C@@H](CCCCN)C(=O)N[C@H](CCC(=O)O)C(=O)N2CCC[C@H]2C(=O)N[C@@H](Cc2ccc(O)cc2)C(=O)N[C@@H](CCCNC(=N)N)C(=O)N[C@@H](CCCNC(N)=O)C(=O)N1)C(N)=O` [TF10, succinyl-Arg-Nal-Cys-Tyr-Cit-Lys-DGlu-Pro-Tyr-Arg-Cit-Cys-Arg-NH2] (Suc-R[2Nal]CY[Cit]K[dE]PYR[Cit]CR-NH2; disulfide 3-12), at CXCR4 receptor, the IC50 stood at 48 nM. On to `COc1ccc2c(c1)c(CC(=O)O)c(C)n2C(=O)c1ccc(Cl)cc1` [Indomethacin, reference compound], for which, in test [2], the arthritis score result was “significant or evident inhibitory activity” and the hindlimb swelling result is given as “significantly inhibited”. Turning to `CN(C)C(=N[C@@H](CCCNC(=N)N)C(=O)N[C@@H](CCCNC(=N)N)C(=O)N[C@@H](Cc1ccc2ccccc2c1)C(=O)N[C@H]1CSSC[C@@H](C(=O)N[C@@H](CCCNC(=N)N)C(N)=O)NC(=O)[C@H](CCCNC(N)=O)NC(=O)[C@H](CCCNC(=N)N)NC(=O)[C@H](Cc2ccc(O)cc2)NC(=O)[C@@H]2CCCN2C(=O)[C@@H](CCC(=O)O)NC(=O)[C@H](CCCCN)NC(=O)[C@H](CCCNC(N)=O)NC(=O)[C@H](Cc2ccc(O)cc2)NC1=O)N(C)C` [TF3, TMguanyl-Arg-Arg-Nal-Cys-Tyr-Cit-Lys-DGlu-Pro-Tyr-Arg-Cit-Cys-Arg-NH2] (X4-R[2Nal]CY[Cit]K[dE]PYR[Cit]CR-NH2; disulfide 3-12), the IC50 on CXCR4 receptor was 9.6 nM. Regarding `N=C(N)NCCC[C@H](NC(=O)[C@@H]1CSSC[C@H](NC(=O)[C@H](Cc2ccc3ccccc3c2)NC(=O)[C@H](CCC(=O)O)NC(=O)[C@@H](N)CCCNC(=N)N)C(=O)N[C@@H](Cc2ccc(O)cc2)C(=O)N[C@@H](CCCNC(=N)N)C(=O)N[C@@H](CCCCN)C(=O)N[C@H](CCCCN)C(=O)N2CCC[C@H]2C(=O)N[C@@H](Cc2ccc(O)cc2)C(=O)N[C@@H](CCCNC(=N)N)C(=O)N[C@@H](CCCNC(N)=O)C(=O)N1)C(=O)O` [TE14002, H-Arg-Glu-Nal-Cys-Tyr-Arg-Lys-DLys-Pro-Tyr-Arg-Cit-Cys-Arg-OH] (H-RE[2Nal]CYRK[dK]PYR[Cit]CR-OH; disulfide 4-13), on CXCR4 receptor, the IC50 amounted to 680 nM.

For orientation: IC50 means the point on the concentration scale where inhibition reaches its midpoint.

Source of the values: US8017585B2, “CXCR4 antagonist and use thereof” (priority 2002, dated 2011).
